Entries after “also recorded” stand apart in the source; their conditions may differ.
What was measured:
[1] = system: P. aeruginosa cultures; assay: Bacterial-survival endpoint assay, viable-cell plate counts after 4 hr; assay type: cell-based, Pseudomonas aeruginosa; details: for lethality (viable-cell plate counts): anoxic conditions with 400 μM nitrate; for lethality (viable-cell plate counts) / sensitivity of cultures (viable-cell plate counts): 40 μg/ml tobramycin, 10 mM chlorate
Protocol: In aerobic-survival endpoint assays, overnight aerobic cultures were pelleted, washed twice with and resuspended in LB, and added to a 96-well microtiter plate at high cell density (optical density at 500 nm [OD500]˜3). Wells also contained sodium chlorate (final concentration, 10 mM), sodium chlorite (final concentration, 10 mM), tobramycin (final concentration, 40 μg ml^−1), or an equal volume (20 μl) of dH2O in untreated-control wells (200-μl total volume per well). Ninety-six-well plates were incubated at 37° C. with shaking at 250 rpm for 4 hr before viable cells on plates were counted. Anaerobic-survival endpoint assays were performed as described above, except […], […], and 96-well plates were incubated anaerobically at 33° C. for 4 hr and then removed from the glove box so that cultures could be serially diluted for viable-cell plate counts.
(§1) Viable-cell plate counts were performed by serially diluting samples in phosphate-buffered saline (PBS). Dilutions spanning 7 orders of magnitude were plated on LB agar plates as 10-μl drips. Plates were incubated at 37° C. for ˜20 h, and incubation continued at room temperature (72 hr of total incubation) to allow for the growth of slow-growing colonies. Colonies were counted daily, and numbers of CFU per milliliter were calculated at the end of the incubation period. All viable-cell plate counting was carried out under aerobic conditions.
High-density P. aeruginosa cultures (˜10^9CFU ml^−1) were incubated with and without drugs under oxic conditions, […], or anoxic conditions without nitrate (no terminal electron acceptor) for 4 h, after which viability was determined (FIG. 1).

[2] = system: P. aeruginosa aggregate biofilms; assay: Agar block biofilm assay (ABBA), LIVE/DEAD staining and confocal microscopy; assay type: cell-based, Pseudomonas aeruginosa; details: 6 hr treatment; for killing of cells in aggregates at depth (SYTO 9/propidium iodide) / killing of cells in middepth aggregates (SYTO 9/propidium iodide) / killing of cells in surface aggregates (SYTO 9/propidium iodide): 40 μg/ml tobramycin, 10 mM chlorate; for viability of cells at depths of >200 μm: tobramycin compared to untreated samples
Protocol: Overnight aerobic cultures were diluted to an OD500 of 0.001 in molten agar growth medium that had been cooled to 44° C. For all agar block biofilm assays (ABBAs), the growth medium used was LB with 5 mM KNO3 and 0.5% noble agar. A portion of the dilution (175 p.1) was added to chambered cover glass slides (Thermo Fisher Scientific number 155409), solidified at room temperature, and incubated at 37° C. for 12 hr in a humidified chamber. After incubation, cells that were not suspended in the agar were removed by adding 400 μl PBS to the top of each agar block and gently pipetting. Liquid was removed by inversion, and the wash was repeated. Aggregate cells were then treated by pipetting 125 μl of 24 mM sodium chlorate (final concentration, 10 mM), 125 μl of 96 μg ml^−1 tobramycin (final concentration, 40 μg ml^−1), or 62.5 μl of 48 mM chlorate and 62.5 μl of 192 μg ml^−1 tobramycin in combination (10 mM and 40μg m^−1 final concentrations, respectively) on the top of the agar block. All chlorate and tobramycin solutions were made in LB, and 125 μl LB was pipetted on the top of untreated control agar blocks. Treated and untreated samples were incubated at 37° C. in a humidified chamber, with shaking at 220 rpm for 6 hr. After incubation, samples were inverted to remove liquid, and cells were stained using a BacLight LIVE/DEAD bacterial viability staining kit (Thermo Fisher Scientific number L7012). One hundred twenty-five microliters of staining solution (1 μl 3.34 mM SYTO 9, 1 μl 20 mM propidium iodide, 123 μl dH2O) was added to each sample, and samples were incubated at room temperature on a VWR variable-speed rocker at the highest speed for 90 min before being imaged.
Before being imaged, ABBA samples were inverted to remove the staining solution, and 75 μl of a 1:50 dilution of 5-μm fluorescent beads (Spherotech; CFP-5045-2) was added to each sample. Excess liquid was removed by wicking, and beads were used to mark the surface of each sample. ABBA aggregates were imaged using a Leica TCS SPE confocal microscope with an ACS APO 0.3-numeric-aperture/10× objective. The agar surface was determined by visualizing fluorescent beads using a 405-nm solid-state laser for excitation, with data collected from 425 to 475 nm. LIVE/DEAD data were collected using a 488-nm solid-state laser for excitation, with emission collected at 510 to 550 nm and 610 to 650 nm for SYTO 9 and propidium iodide, respectively. Images were collected from three distinct locations near the center of each well as 500-μm z-stacks (50 slices total, 10-μm step size). z-stacks were collected in 8-bit mode with a scan format of 512 by 512 pixels (for quantification) or 1,024 by 1,024 pixels (for representative images) and line averaging of 2. Representative images were chosen from 6 independent experiments.
To quantify ABBA staining, images were loaded in Fiji (92), and background was subtracted from each image using the rolling ball method with a radius of 100 pixels. A threshold was applied to all images to exclude pixels with a value of <20, and total pixel intensity for both stains was determined for each image using the RawIntDen value in the Integrated Density measurement function. The proportion of sensitive cells was determined for each image (at each depth) by dividing the propidium iodide integrated density by the sum of the propidium iodide- and SYTO 9-integrated densities. ABBA staining quantifications are averages from 6 independent experiments (3 technical replicates per independent experiment).
In the ABBA system, an overnight culture is diluted into 0.5% molten agar medium, allowed to solidify, and incubated overnight at 37° C. Agar-suspended cells grow as aggregates, which develop into metabolically distinct populations at different spatial scales.

[3] = Stability of concentrations in cell-free growth medium (ion chromatography); details: LB, 72 hr; 1 mM chlorate oxic, anoxic, anoxic with 40 mM nitrate; 40 mM nitrate anoxic plus 1 mM chlorate
Protocol: One millimolar chlorate concentrations were monitored in LB that was incubated for 72 hr under oxic conditions (filled circles), anoxic conditions (open circles), and anoxic conditions with 40 mM nitrate (open circles). Forty millimolar nitrate concentrations were monitored in LB medium that was incubated for 72 hr under anoxic conditions plus 1 mM chlorate (filled circles).
Culture samples were centrifuged at 16,000×g at room temperature for 10 min to pellet cells. Supernatants were diluted 1:10 in dH2O and added to 0.5-ml vials (Thermo Fisher Scientific catalog numbers 038010 and 038011). Nitrate and chlorate concentrations were quantified using the Dionex ICS 2000 ion chromatography system (Environmental Analysis Center, Caltech). Samples were loaded via a 15-μl sample loop onto an AS-19 separator (2- by 250-mm) column protected by an AG-19 guard (2 by 50 mm), maintained at 30° C. […] Anions were detected at neutral pH using an AERS 500 2-mm suppressor (Thermo Fisher Scientific) operated in eluent recycle mode with an applied current of 30 mA, and the conductivity detection cell was maintained at 35° C. […] Sodium chlorate and potassium nitrate standards were used to identify sample analytes via retention time and to generate standard curves for quantifying analyte concentrations.

[4] = system: P. aeruginosa cultures; assay: 72 hr survival assay with viable-cell counts and chlorate quantification; assay type: cell-based, Pseudomonas aeruginosa; details: 1 mM chlorate
Protocol: as §1

[5] = system: P. aeruginosa ΔlasR mutant; assay: 72 hr anoxic survival assay with viable-cell counts and chlorate quantification, ΔlasR; assay type: cell-based, Pseudomonas aeruginosa; details: anoxic conditions, 1 mM chlorate
Protocol: as §1

[6] = system: P. aeruginosa narG transposon mutant; assay: Anaerobic adaptation and survival, narG mutant; assay type: cell-based, Pseudomonas aeruginosa; details: 1 mM chlorate, 72 hr anoxic
Protocol: Overnight cultures were grown aerobically in LB with 40 mM KNO3, 100 mM L-arabinose, 50 μg ml^−1 gentamicin (for strains containing pMQ72-derived plasmids), and 50 μg ml^−1 kanamycin (for transposon insertion strains). Overnight cultures were pelleted, washed twice in LB with 100 mM L-arabinose to remove antibiotics, and resuspended in LB with 100 mM L-arabinose with or without 1 mM sodium chlorate at high cell density (OD500˜3). Two hundred microliters of resuspended culture was added to 96-well microtiter plates, and the plates were moved to the anaerobic glove box for cells to adapt to the anaerobic lifestyle. After a 72-hr incubation at 33° C., 96-well plates were removed from the anaerobic glove box and viable cells on plates were counted to calculate numbers of CFU per milliliter (described above). Percent survival was calculated for each strain by dividing CFU-permilliliter values from cultures containing chlorate by the average CFU-per-milliliter value from control cultures lacking chlorate and multiplying by 100. CFU-per-milliliter values of untreated control cultures were similar across strains, ranging from 1.0×10^9 to 2.2×10^9. The percentage of chlorate remaining after the 72-hr incubation was determined for each strain by dividing the final chlorate concentration in each culture by the initial chlorate concentration in the medium and multiplying by 100. […]

[7] = system: P. aeruginosa ΔlasR ΔnarGHJI strain; assay: Anaerobic adaptation and survival, ΔlasR ΔnarGHJI; assay type: cell-based, Pseudomonas aeruginosa; details: 1 mM chlorate, 72 hr anoxic
Protocol: The narGHJI genes were deleted in WT PA14 and the isogenic ΔlasR background. The region upstream of narG was amplified using primers 5′-[…]-3′ (SEQ ID NO: 11) and 5′-[…]-3′ (SEQ ID NO: 12), and the region downstream of narI was amplified using primers 5′-[…]-3′ (SEQ ID NO: 13) and 5′-[…]-3′ (SEQ ID NO: 14). These fragments were cloned into HindIII- and SacI-digested pMQ30 (89) via Gibson cloning. […]
Overnight cultures were grown aerobically in LB with 40 mM KNO3, 100 mM L-arabinose, 50 μg ml^−1 gentamicin (for strains containing pMQ72-derived plasmids), and 50 μg ml^−1 kanamycin (for transposon insertion strains). […] After a 72-hr incubation at 33° C., 96-well plates were removed from the anaerobic glove box and viable cells on plates were counted to calculate numbers of CFU per milliliter (described above). Percent survival was calculated for each strain by dividing CFU-permilliliter values from cultures containing chlorate by the average CFU-per-milliliter value from control cultures lacking chlorate and multiplying by 100. […] The percentage of chlorate remaining after the 72-hr incubation was determined for each strain by dividing the final chlorate concentration in each culture by the initial chlorate concentration in the medium and multiplying by 100.

[8] = anoxic conditions with 40 mM nitrate
[9] = anoxic conditions without nitrate

Compound | lethality (viable-cell plate counts) [1] | sensitivity of cultures (viable-cell plate counts) [1, 8] | sensitivity of cultures (viable-cell plate counts) [1, 9] | sensitivity of cultures (viable-cell plate counts) ([1]; oxic conditions) | killing of cells in aggregates at depth (SYTO 9/propidium iodide) [2] | killing of cells in middepth aggregates (SYTO 9/propidium iodide) [2] | killing of cells in surface aggregates (SYTO 9/propidium iodide) [2] | viability of cells at depths of >200 μm [2] | sensitivity of anoxic cultures compared with oxic cultures ([1]; 10 mM chlorite) | stability of concentration in cell-free growth medium (abiotic controls) [3] | chlorate-associated cell death ([4]; anoxic cultures with 40 mM nitrate) | chlorate-associated cell death ([4]; oxic cultures) | viable-cell counts in ΔlasR cultures lower than WT at end of experiment [5] [fold] | chlorate sensitivity (viable-cell counts) ([6]; narG mutant complemented with narGHJI genes) | chlorate sensitivity (viable-cell counts) ([6]; narG mutant) | chlorate sensitivity (percent survival) [7]
NC[C@H]1O[C@H](O[C@H]2[C@H](O)[C@@H](O[C@H]3O[C@H](CO)[C@@H](O)[C@H](N)[C@H]3O)[C@H](N)C[C@@H]2N)[C@H](N)C[C@@H]1O [tobramycin, reference compound] | indistinguishable from that in cultures lacking nitrate | sensitive | tolerant | sensitive | tolerant | cells on the exterior being killed and cells on the interior staying alive | killed | increased survival |  |  |  |  |  |  |  | 
sodium chlorite [reference compound] |  |  |  |  |  |  |  |  | much more sensitive |  |  |  |  |  |  | 
O=[N+]([O-])[O-].[K+] [nitrate, KNO3] |  |  |  |  |  |  |  |  |  | stable |  |  |  |  |  | 
[O-][Cl+2]([O-])O [chlorate, sodium chlorate] | indistinguishable from that in cultures lacking nitrate | does not kill; also recorded: tolerant | sensitive; also recorded: kills | does not kill | killed | the exterior of middepth aggregates are chlorate tolerant, whereas aggregates at depth and the interior of middepth aggregates are killed | tolerant | most cells at depths of >200 μm are dead |  | stable | does not occur until nitrate is consumed | no chlorate-associated cell death | 100 | restores chlorate sensitivity | resistant | chlorate tolerant

From patent US20190142864A1, “METHODS AND SYSTEMS, FOR INTERFERING WITH VIABILITY OF BACTERIA AND RELATED ANTIMICROBIALS AND COMPOSITIONS” (CALIFORNIA INSTITUTE OF TECHNOLOGY, priority 2017, published 2019)
